Columns and labels:
Experiment in all cases: Preemergent control of plant species
yellow nutsedge = type: in vivo, Cyperus esculentus; conditions: 0.25 lb/acre; for pest or weed control at 280.212 g/ha: Cyperus, pre-emergence, 336 h, read-out: percent preemergent control
Protocol: (§1) The seeds of various species of plants were planted in beds of good agricultural soil in a greenhouse. A number of compositions of the present invention, generally in the nature of an aqueous emulsion, were applied at rates listed in the table so as to deposit a predetermined amount of active ingredients uniformly throughout the surface of the bed. Another seed bed was treated only with water to serve as a control. After treatment the seed beds were maintained for two weeks under greenhouse conditions conducive for good plant growth and watered as necessary. Control refers to the reduction in growth compared to the observed results of the same untreated species.

rape = type: in vivo, Brassica napus; conditions: 0.25 lb/acre; for plant injury at 280.212 g/ha: Brassica napus, pre-emergence, 336 h, read-out: percent preemergent control
Protocol: as §1

sugar beet = type: in vivo, Beta saccharifera; conditions: 0.25 lb/acre; for plant injury at 280.212 g/ha: Beta vulgaris, pre-emergence, 336 h, read-out: percent preemergent control
Protocol: as §1

corn = type: in vivo, Zea mays; conditions: 0.25 lb/acre; for plant injury at 280.212 g/ha: Zea mays, pre-emergence, 336 h, read-out: percent preemergent control
Protocol: as §1

velvetleaf = type: in vivo, Abutilon theophrasti; conditions: 0.25 lb/acre; for pest or weed control at 280.212 g/ha: Abutilon theophrasti, pre-emergence, 336 h, read-out: percent preemergent control
Protocol: as §1

yellow foxtail = type: in vivo, Setaria lutescens; conditions: 0.25 lb/acre; for pest or weed control at 280.212 g/ha: Setaria, pre-emergence, 336 h, read-out: percent preemergent control
Protocol: as §1

sorghum = type: in vivo, Sorghum vulgare; conditions: 0.25 lb/acre; for plant injury at 280.212 g/ha: Sorghum, pre-emergence, 336 h, read-out: percent preemergent control
Protocol: as §1

wheat = type: in vivo, Triticum aestivum; conditions: 0.25 lb/acre; for plant injury at 280.212 g/ha: Triticum aestivum, pre-emergence, 336 h, read-out: percent preemergent control
Protocol: as §1

johnson grass = type: in vivo, Sorghum halepense; conditions: 0.25 lb/acre; for pest or weed control at 280.212 g/ha: Sorghum halepense, pre-emergence, 336 h, read-out: percent preemergent control
Protocol: as §1

soybean = type: in vivo, Glycine max.; conditions: 0.25 lb/acre; for plant injury at 280.212 g/ha: Glycine max, pre-emergence, 336 h, read-out: percent preemergent control
Protocol: as §1

jimsonweed = type: in vivo, Datura stramonium; conditions: 0.25 lb/acre; for pest or weed control at 280.212 g/ha: Datura stramonium, pre-emergence, 336 h, read-out: percent preemergent control
Protocol: as §1

cotton = type: in vivo, Gossypium spp.; conditions: 0.25 lb/acre; for plant injury at 280.212 g/ha: Gossypium hirsutum, pre-emergence, 336 h, read-out: percent preemergent control
Protocol: as §1

barnyardgrass = type: in vivo, Echinochloa crusgalli; conditions: 0.25 lb/acre; for pest or weed control at 280.212 g/ha: Echinochloa crus-galli, pre-emergence, 336 h, read-out: percent preemergent control
Protocol: as §1

rice = type: in vivo, Oryza sativa; conditions: 0.25 lb/acre; for plant injury at 280.212 g/ha: Oryza sativa, pre-emergence, 336 h, read-out: percent preemergent control
Protocol: as §1

annual morning glory = type: in vivo, Ipomoea spp.; conditions: 0.25 lb/acre; for pest or weed control at 280.212 g/ha: Ipomoea, pre-emergence, 336 h, read-out: percent preemergent control
Protocol: as §1

| SMILES | pest or weed control at 280.212 g/ha (yellow nutsedge) | plant injury at 280.212 g/ha (rape) | plant injury at 280.212 g/ha (sugar beet) | plant injury at 280.212 g/ha (corn) | pest or weed control at 280.212 g/ha (velvetleaf) | pest or weed control at 280.212 g/ha (yellow foxtail) | plant injury at 280.212 g/ha (sorghum) | plant injury at 280.212 g/ha (wheat) | pest or weed control at 280.212 g/ha (johnson grass) | plant injury at 280.212 g/ha (soybean) | pest or weed control at 280.212 g/ha (jimsonweed) | plant injury at 280.212 g/ha (cotton) | pest or weed control at 280.212 g/ha (barnyardgrass) | plant injury at 280.212 g/ha (rice) | pest or weed control at 280.212 g/ha (annual morning glory) | also measured |
| --- | --- | --- | --- | --- | --- | --- | --- | --- | --- | --- | --- | --- | --- | --- | --- | --- |
| COc1nc2nc(S(=O)(=O)Nc3c(F)ccc(C)c3F)nn2cc1C [Compound 219] | 100% | 100% | 100% | 100% | 100% | 100% | 100% | 100% | 10% | 100% | 100% | 100% | 100% | 50% | 100% | – |
| Cc1cc(C(F)(F)F)n2nc(S(=O)(=O)Nc3c(Cl)cccc3Cl)nc2n1 [Compound 227] | 100% | 100% | 100% | 40% | 30% | 90% | 100% | 90% | 70% | 0% | 100% | 60% | 50% | 50% | 70% | – |
| C=C(C)C(=O)N(c1c(F)cccc1F)S(=O)(=O)c1nc2nc(C)ccn2n1 [Compound 286] | 100% | 100% | 100% | 50% | 100% | 100% | 100% | 70% | 100% | 30% | 100% | 100% | 100% | 100% | 100% | – |
| COc1cccc(F)c1NS(=O)(=O)c1nc2nc(C)ccn2n1 [Compound 171] | 80% | 100% | 100% | 40% | 90% | 100% | 100% | 50% | 100% | 20% | 20% | 70% | 100% | 90% | 50% | – |
| COc1cccc(C(F)(F)F)c1NS(=O)(=O)c1nc2nccc(C)n2n1 [Compound 191] | 100% | 100% | 100% | 95% | 100% | 100% | 100% | 100% | 100% | 100% | 100% | 100% | 100% | – | 100% | – |
| Cc1ccn2nc(S(=O)(=O)Nc3c(F)cccc3[N+](=O)[O-])nc2n1 [Compound 173] | – | – | – | – | – | – | – | – | – | – | – | – | – | – | – | percent preemergent control (yellow nutsedge): 0%; percent preemergent control (rape): 80%; percent preemergent control (sugar beet): 90%; percent preemergent control (corn): 30%; percent preemergent control (velvetleaf): 0%; percent preemergent control (yellow foxtail): 50%; percent preemergent control (sorghum): 30%; percent preemergent control (wheat): 20%; percent preemergent control (johnson grass): 70%; percent preemergent control (soybean): 0%; percent preemergent control (jimsonweed): 0%; percent preemergent control (cotton): 50%; percent preemergent control (barnyardgrass): 30%; percent preemergent control (rice): 70%; percent preemergent control (annual morning glory): 0% |
| COc1nc2nc(S(=O)(=O)Nc3ccccc3C(F)(F)F)nn2cc1C [Compound 217] | 70% | 100% | 100% | 50% | 100% | 50% | 100% | 100% | 100% | 100% | 100% | 100% | 90% | 90% | 100% | – |
| Cc1cc(C(F)(F)F)n2nc(S(=O)(=O)Nc3c(F)ccc(C)c3F)nc2n1 [Compound 230] | 100% | 90% | 100% | 90% | 90% | 80% | 100% | 30% | 90% | 20% | 100% | 100% | 100% | 50% | 90% | – |
| Cc1ccn2nc(S(=O)(=O)N(C(=O)C(C)(C)C)c3c(F)cccc3F)nc2n1 [Compound 280] | 100% | 100% | 100% | 50% | 100% | 100% | 100% | 60% | 90% | 10% | 100% | 80% | 100% | 50% | 90% | – |
| COc1nc2nc(S(=O)(=O)Nc3c(C)cccc3Cl)nn2cc1C [Compound 220] | 100% | 100% | 100% | 100% | 100% | 100% | 100% | 100% | 100% | 90% | 100% | 100% | 90% | 50% | 70% | – |
| Cc1ccn2nc(S(=O)(=O)N(C(=O)CC(C)(C)C)c3c(F)cccc3F)nc2n1 [Compound 278] | 100% | 100% | 100% | 60% | 100% | 100% | 100% | 70% | 90% | 70% | 100% | 100% | 100% | 90% | 100% | – |
| COc1nc2nc(S(=O)(=O)Nc3c(Cl)ccc(C)c3Cl)nn2cc1C [Compound 218] | 50% | 100% | 100% | 0% | 100% | 50% | 95% | 0% | 50% | 100% | 100% | 100% | 0% | 0% | 100% | – |
